Source: patent US8581605B2 (priority 2006, dated 2013)

Biological target: αHL ion channel (Staphylococcus aureus, UniProt P09616)
Type: biochemical
Conditions: pH 7.4

Sequence of αHL ion channel (P09616 27-319 limits assumed): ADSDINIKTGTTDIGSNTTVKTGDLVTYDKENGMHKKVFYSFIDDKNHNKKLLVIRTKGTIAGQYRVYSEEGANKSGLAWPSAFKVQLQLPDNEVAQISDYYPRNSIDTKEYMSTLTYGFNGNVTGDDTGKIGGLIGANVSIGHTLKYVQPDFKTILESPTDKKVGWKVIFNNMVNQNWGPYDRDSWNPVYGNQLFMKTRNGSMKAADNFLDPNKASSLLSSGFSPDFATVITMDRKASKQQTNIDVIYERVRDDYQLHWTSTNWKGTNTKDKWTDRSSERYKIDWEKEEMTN

Substance: hepta-6-sulfato-β-cyclodextrin [s7βCD]
- reduction of conductance through the αHL when s7βCD is bound: ~90%
